According to patent publication US9694027B2, “Pyrazole derivative and use thereof for medical purposes” (KISSEI PHARMACEUTICAL CO. LTD., priority 2012, dated 2017):

Key:
[1] = tested on: patients with chronic constipation; test: Clinical trial in patients with chronic constipation (Example 5); type: in vivo, human
Procedure: After observation for 2 weeks, Compound 2 or a placebo was administered orally after eating to 79 patients with chronic constipation for 4 weeks. Patients who had steady symptoms for long periods were selected as constipation patients using diagnostic criteria of functional constipation based on Rome III as a reference.
2 mg TID group: administration of 2 mg of Compound 2, 3 times daily • (after breakfast, after lunch, after dinner)
20 mg QD group: administration of 20 mg of Compound 2, 1 time daily • (after breakfast)
20 mg BID group: administration of 20 mg of Compound 2, 2 times daily • (after breakfast, after dinner)
20 mg TID group: administration of 20 mg of Compound 2, 3 times daily • (after breakfast, after lunch, after dinner)
For the administration of Compound 2, tablets containing 1 or 10 mg in free drug equivalent of Compound 2 were used.
If the subjects complained that further administration of 2 tablets each time was difficult due to the increase in the frequency of spontaneous bowel movements or softened stool form causing problems in daily life, the dose was switched to 1 tablet each time in the week 1 visit or week 2 visit by the doctor and the administration was continued.

[2] = tested on: rat model of low-fiber diet-induced constipation; test: Rat model of low-fiber diet-induced constipation (Example 2); details: for Fecal weight within 24 hours after the administration: followed by mixed carbohydrate, n=4, Control group 1 0.53, Normal feed group 8.33
Procedure: Compound 2 was weighed and was dissolved in distilled water at preparation concentrations of 3, 10 and 30 mg/mL as the free drug to prepare test compounds.
0.5% methylcellulose (0.5% MC) was used as a vehicle for preparation of lubiprostone. Lubiprostone was weighed and was suspended in 0.5% MC at preparation concentrations of 1, 3 and 10 mg/mL to prepare control substances.
Magnesium sulfate (MgSO4) (Wako pure chemical) was weighed and was dissolved in distilled water at a preparation concentrations of 200 mg/mL to prepare a positive control substance.
A soluble starch, sucrose and lactose monohydrate were weighed at a rate of 6:3:1 and were dissolved in distilled water which was approximately 80% of the amounts of preparation on heating, and then the mixture was added with distilled water to prepare 0.4 g/mL solution of mixed carbohydrate.
A low-fiber diet was prepared based on the literature (Kakino et al. BMC Complementary and Alternative Medicine 2010, 10: 68).
Rats were fed on the low-fiber diet for 1-2 weeks to induce constipation.
Compound 2 (3 mg/kg, 10 mg/kg or 30 mg/kg as free drug), lubiprostone (1 mg/kg, 3 mg/kg or 10 mg/kg), MgSO4 (2000 mg/kg) or a vehicle (distilled water: Control group 1, 0.5% MC: Control group 2) was administered orally at around 9 a.m. using a 1 mL glass syringe and a stomach tube. Then, 0.4 g/mL solution of mixed carbohydrate was administered orally at 2 mL/body to Control group 1 and the groups administered with Compound 2. Distilled water was administered to the normal feed group.
The sum of the fecal weights at the collection times was set as the fecal weight at 24 hours after the administration.
The statistical analysis was made by testing the uniformity of variance using Bartlett's method, and multiple comparison between Control group 1 and the group administered with Compound 2 or Control group 2 and the group administered with lubiprostone was made using Dunnett's method when variance was uniform respectively, and multiple comparison was made using Steel's method when variance was not uniform. In each case, significance level<5% was considered as significant difference.

healthy adult males = test: Multiple-dose study in healthy adult males (Example 4); type: in vivo, human; details: for Daily frequency of bowel movement after the administration, Mean: once daily Days 1 and 13, 3 times daily Days 3 to 12, daily mean during fifteen days, 8 subjects, Placebo 1.0; for Number of subject with gastrointestinal disorders: Abdominal pain / Number of subject with gastrointestinal disorders: Diarrhea: of 8 subjects; for Number of subject with gastrointestinal disorders: Abdominal pain: Placebo 0; for Number of subject with gastrointestinal disorders: Diarrhea: Placebo 3
Procedure: Compound 2 at a dose of 2, 5, 10 or 20 mg (free drug equivalent), a placebo, or miglitol at a dose of 50 mg was repetitively administered orally once daily just immediately before breakfast on administration Days 1 and 13, and 3 times daily just immediately before every meal on administration Days 3 to 12 to healthy adult males. For the administration of Compound 2, tablets containing 1, 5 or 10 mg in free drug equivalent were used. The test period was set between administration Day 1 and Day 15. Frequencies of bowel movements were checked during consultation by a doctor, and the adverse events (gastrointestinal disorders) were defined when an abnormal finding (diarrhea or loose stool) was seen based on the stool form and the finding. In this regard, the frequencies of bowel movements in Table 8 show the daily means during fifteen days (time/day).

Number of subject with gastrointestinal disorders: Abdominal pain (healthy adult males; multiple dose 2 mg): 0
Number of subject with gastrointestinal disorders: Diarrhea (healthy adult males; multiple dose 2 mg): 6
Number of subject with gastrointestinal disorders: Abdominal pain (healthy adult males; multiple dose 5 mg): 0
Number of subject with gastrointestinal disorders: Diarrhea (healthy adult males; multiple dose 5 mg): 5
Number of subject with gastrointestinal disorders: Abdominal pain (healthy adult males; multiple dose 10 mg): 0
Number of subject with gastrointestinal disorders: Diarrhea (healthy adult males; multiple dose 10 mg): 5
Number of subject with gastrointestinal disorders: Abdominal pain (healthy adult males; multiple dose 20 mg): 1
Number of subject with gastrointestinal disorders: Diarrhea (healthy adult males; multiple dose 20 mg): 6
SMILES: Cc1cc(OCCCNCC(C)(C)C(N)=O)ccc1Cc1c(O[C@@H]2O[C@H](CO)[C@@H](O)[C@H](O)[C@H]2O)n[nH]c1C(C)C.Cc1cc(OCCCNCC(C)(C)C(N)=O)ccc1Cc1c(O[C@@H]2O[C@H](CO)[C@@H](O)[C@H](O)[C@H]2O)n[nH]c1C(C)C.O=C(O)CCCCCCCCC(=O)O [Compound 2, bis[3-(3-{4-[3-(β-D-glucopyranosyloxy)-5-isopropyl-1H-pyrazol-4-ylmethyl]-3-methylphenoxy}propylamino)-2,2-dimethylpropionamide]monosebacate]
Subjects with hypoglycemia ([1]; all groups administered, 4 weeks): no subjects with hypoglycemia were reported
Frequency of spontaneous bowel movements per week ([1]; subject 1, 2 mg TID, administration week 1, observation period 1.1): 7.0 time/week
Bristol Stool Form Scale ([1]; subject 1, 2 mg TID, administration week 1, observation period 1.5): 3.7 mean/week
Frequency of spontaneous bowel movements per week ([1]; subject 1, 2 mg TID, administration week 2, observation period 1.1): 7.0 time/week
Bristol Stool Form Scale ([1]; subject 1, 2 mg TID, administration week 2, observation period 1.5): 3.7 mean/week
Frequency of spontaneous bowel movements per week ([1]; subject 1, 2 mg TID, administration week 3, observation period 1.1): 11.0 time/week
Bristol Stool Form Scale ([1]; subject 1, 2 mg TID, administration week 3, observation period 1.5): 4.1 mean/week
Frequency of spontaneous bowel movements per week ([1]; subject 1, 2 mg TID, administration week 4, observation period 1.1): 10.5 time/week
Bristol Stool Form Scale ([1]; subject 1, 2 mg TID, administration week 4, observation period 1.5): 3.8 mean/week
Frequency of spontaneous bowel movements per week ([1]; subject 2, 20 mg QD, administration week 1, observation period 1.8): 12.0 time/week
Bristol Stool Form Scale ([1]; subject 2, 20 mg QD, administration week 1, observation period 3.0): 4.6 mean/week
Frequency of spontaneous bowel movements per week ([1]; subject 2, 20 mg QD, administration week 2, observation period 1.8): 13.0 time/week
Bristol Stool Form Scale ([1]; subject 2, 20 mg QD, administration week 2, observation period 3.0): 4.0 mean/week
Frequency of spontaneous bowel movements per week ([1]; subject 2, 20 mg QD, administration week 3, observation period 1.8): 8.0 time/week
Bristol Stool Form Scale ([1]; subject 2, 20 mg QD, administration week 3, observation period 3.0): 3.4 mean/week
Bristol Stool Form Scale ([1]; subject 3, 20 mg BID switched to 10 mg 2 times daily after 1 week, administration week 2, observation period 2.0): 4.0 mean/week
Frequency of spontaneous bowel movements per week ([1]; subject 3, 20 mg BID switched to 10 mg 2 times daily after 1 week, administration week 2, observation period 2.2): 6.0 time/week
Bristol Stool Form Scale ([1]; subject 3, 20 mg BID switched to 10 mg 2 times daily after 1 week, administration week 3, observation period 2.0): 4.3 mean/week
Frequency of spontaneous bowel movements per week ([1]; subject 3, 20 mg BID switched to 10 mg 2 times daily after 1 week, administration week 3, observation period 2.2): 6.0 time/week
Bristol Stool Form Scale ([1]; subject 3, 20 mg BID switched to 10 mg 2 times daily after 1 week, administration week 4, observation period 2.0): 4.2 mean/week
Frequency of spontaneous bowel movements per week ([1]; subject 3, 20 mg BID switched to 10 mg 2 times daily after 1 week, administration week 4, observation period 2.2): 5.0 time/week
Bristol Stool Form Scale ([1]; subject 3, 20 mg BID, administration week 1, observation period 2.0): 5.9 mean/week
Frequency of spontaneous bowel movements per week ([1]; subject 3, 20 mg BID, administration week 1, observation period 2.2): 21.0 time/week
Fecal weight within 24 hours after the administration ([2]; 3 mg/kg as free drug oral): 1.20 g
Fecal weight within 24 hours after the administration ([2]; 10 mg/kg as free drug oral): 4.20 g
Fecal weight during 24 hours versus Control group ([2]; 10 mg/kg or more, versus Control group 1, significance level <5%): significantly higher than in each Control group
Fecal weight within 24 hours after the administration ([2]; 30 mg/kg as free drug oral): 4.93 g
Dose dependence of fecal weight during 24 hours after the administration ([2]; oral): dose-dependently increased
Daily frequency of bowel movement after the administration, Mean (healthy adult males; 2 mg): 1.4 time/day
Daily frequency of bowel movement after the administration, Mean (healthy adult males; 5 mg): 1.1 time/day
Daily frequency of bowel movement after the administration, Mean (healthy adult males; 10 mg): 2.0 time/day
Daily frequency of bowel movement after the administration, Mean (healthy adult males; 20 mg): 1.7 time/day
